Measured values as given in PMC11984924, “Dipeptidic Phosphonates: Potent Inhibitors of Pseudomonas aeruginosa Elastase B Showing Efficacy in a Murine Keratitis Model” (Advanced Science, 2025).

Legend:
MMP-2 = target: T1, MMP-2 (Homo sapiens, UniProt P08253); test: MMP-2 inhibition (off-target); format: biochemical; conditions: read-out: MMP-2 % inhibition at 100 µM
T1 construct: purchased AnaSpec (Fremont, CA, USA)
T1 sequence (P08253 110-660): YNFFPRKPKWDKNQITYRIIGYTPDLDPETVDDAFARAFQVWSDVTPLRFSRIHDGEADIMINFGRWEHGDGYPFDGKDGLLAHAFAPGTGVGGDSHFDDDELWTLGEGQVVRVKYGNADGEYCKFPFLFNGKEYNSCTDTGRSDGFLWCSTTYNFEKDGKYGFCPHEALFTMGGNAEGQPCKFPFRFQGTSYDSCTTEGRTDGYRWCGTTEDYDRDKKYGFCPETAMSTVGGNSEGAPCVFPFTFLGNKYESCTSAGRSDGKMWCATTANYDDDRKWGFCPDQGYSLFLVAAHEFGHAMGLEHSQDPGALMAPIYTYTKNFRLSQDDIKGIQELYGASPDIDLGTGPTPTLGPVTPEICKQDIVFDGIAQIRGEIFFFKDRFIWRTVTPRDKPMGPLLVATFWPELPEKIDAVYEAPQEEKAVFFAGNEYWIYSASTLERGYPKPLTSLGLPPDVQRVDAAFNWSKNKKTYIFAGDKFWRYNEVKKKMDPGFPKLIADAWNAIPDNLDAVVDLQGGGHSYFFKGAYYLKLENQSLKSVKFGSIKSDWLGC
Experimental: 3.1 In vitro inhibition assays […]
(§1) MMPs, TACE). All in vitro inhibition assays were performed as described previously.[10] TACE inhibitor screening kits were purchased from Sigma-Aldrich (Saint Louis, MO). MMPs along with the SensoLyte 520 Generic MMP Activity Kit Fluorimetric were purchased from AnaSpec (Fremont, CA, USA). The assays were performed according to the guidelines of the respective manufacturer. Fluorescence signals were measured using a CLARIOstar plate reader (BMG Labtech, Ortenberg, Germany). […]
3.8 Test against zinc metalloproteases MMP1–3 and TACE (ADAM17), and testing of
as §1, with “We selected a panel of human off -targets, including three human matrix metalloproteases (MMP-1, -2 and -3) and TACE (ADAM-17). These” for “MMPs, TACE). All in vitro inhibition”, “previously.[3] The” for “previously.[10]”, “kit was” for “kits were”, “Sigma -Aldrich” for “Sigma-Aldrich”
Table S6: Percent (%) inhibition of three MMPs (1 –3) and TACE (ADAM17) in presence of selected LasB inhibitors at 100 µM. Results are means and SD of at least two independent experiments. […]
Compound [% inhibition at [% inhibition at [% inhibition at [% inhibition at 100

[1] = Kinetic solubility in PBS pH 7.4; format: physicochemical; conditions: aqueous buffer, kinetic from dmso stock
Experimental: The desired compounds were sequentially diluted in DMSO in a 96-well plate. 1.5 µL of each well were transferred into another 96-well plate and mixed with 148.5 µL of PBS. Plates were shaken for 5 min at 600 rpm at room temperature (r.t.), and the absorbance at 620 nm was measured. Absorbance values were normalized by blank subtraction and plotted using GraphPad Prism 8.4.2 (GraphPad Software, San Diego, CA, USA). […]

[2] = Metabolic stability in mouse liver S9 fraction; format: in vitro ADME; conditions: C57BL/6, liver S9 fraction; mouse liver S9, 1 µM
Experimental: page 57: 3. Biological evaluation 3.1 In vitro inhibition assays […] MMPs, TACE). […] inhibitor screening kits were purchased from Sigma-Aldrich (Saint Louis, MO). MMPs along with the SensoLyte 520 Generic MMP Activity Kit Fluorimetric were purchased from AnaSpec (Fremont, CA, USA). The assays were performed according to the guidelines of the respective manufacturer. Fluorescence signals were measured using a CLARIOstar plate reader (BMG Labtech, Ortenberg, Germany). 3.2 Kinetic solubility […] well were transferred into another 96-well plate and mixed with 148.5 µL of PBS. Plates were shaken for 5 min at 600 rpm at room temperature (r.t.), and the absorbance at 620 nm was measured. Absorbance values were normalized by blank subtraction and plotted using GraphPad Prism 8.4.2 (GraphPad Software, San Diego, CA, USA). Solubility (S) was […] 3.3 Lipophilicity determination LogD7.4 was analyzed using an HPLC−based method. The UV retention time of reference […] Linear […] Analysis was performed using a Vanquish Flex HPLC system with variable wavelength detector (Thermo Fisher, Dreieich, Germany) with the following conditions: EC150/2 NUCLEODUR C18 Pyramid column, 5 μM (Macherey Nagel, Düren, Germany); eluent A: 50 mM NH4OAc pH 7.4, eluent B: acetonitrile, and flow: 0.6 mL/min. […] 3.4 Metabolic stability in liver S9 fractions For the evaluation of combined phase I and phase II metabolic stability, the compound (1 μM) was incubated with 1 mg/mL pooled mouse liver S9 fraction (C57BL/6, Xenotech, Kansas Cit y, USA) or human liver S9 fraction (Corning, USA), 2 mM NADPH, 1 mM UDPGA, 10 mM MgCl2, 5 mM GSH and 0.1 mM PAPS at 37 °C for 120 min. The metabolic stability of testosterone, verapamil and ketoconazole were determined in parallel to confirm the enzymatic activity of S56 page 58: mouse S9 fractions, for human S9 testosterone, diclofenac and propranolol were used. The incubation was stopped after defined time points by precipitation of aliquots of S9 enzymes […] Samples were stored on ice until the end of the incubation and precipitated protein was removed by centrifugation (15 min, 4 °C, 4,000 g). Concentration of the remaining test compound at the different time points was analyzed by HPLC-MS/MS (TSQ Quantum Access MAX, Thermo Fisher, Dreieich, Germany) and used to determine half -life (t1/2) and intrinsic clearance (Clint). Species profiling was conducted as above using 0.5 mg/mL pooled mouse, rat or minipig liver microsomes (Xenotech, Kansas City, USA) with 2 mM NADPH and 10 mM MgCl2 and testosterone, verapamil and ketoconazole as reference compounds. 3.5 Plasma stability To determine stability in plasma, the compound (1 µM) was incubated with pooled CD -1 mouse/human/Wistar rat or Göttingen minipig plasma (Neo Biotech, Nanterre, France). Samples were taken by mixing aliquots with 4 volumes of acetonitrile containing internal standard (125 nM diphenhydramine). The plasma stability of procain, propantheline and diltiazem were determined in parallel to confirm the enzymatic activity. Samples were stored on ice until the end of the incubation and precipitated protein was removed by centrifugation (15 min, 4 °C, 4,000 g, two centrifugation steps). Concentration of the remaining test compound at the different time points was analyzed by HPLC-MS/MS (TSQ Quantum Access MAX, Thermo Fisher, Dreieich, Germany) and used to determine half-life (t1/2). Table S2: Additional in vitro ADMET data for selected dipeptides. n.d.: not determined. […] Compound Solubility PBS pH 7.4 [µM] Mouse Human Mouse Human […] S57

Compound | inhibition at 100 µM (MMP-2) [%] | solubility kinetic at 5 min [1] [µM] | microsomal CLint at 1 µM [2] [µL/min/mg]
CC(=O)c1ccc(NC(=O)[C@@H](NC(=O)[C@@H](CC(C)C)P(=O)(O)O)C(C)C)cc1 [(R)‐30] | < 10 | > 200 | < 5.8
CC(C)CC(C(=O)N[C@H](C(=O)Nc1ccc(Cl)c(Cl)c1)C1CCCCC1)P(=O)(O)O (stereo partly drawn) [compound 14] | < 10 | > 200 | < 5.8
CC(C)CC(C(=O)N[C@H](C(=O)Nc1ccc(Cl)c(Cl)c1)C(C)C)P(=O)(O)O (stereo partly drawn) [compound 9] | < 10 | > 200 | < 5.8
CC(C)C[C@H](C(=O)N[C@H](C(=O)Nc1ccc(-n2ccnc2)cc1)C(C)C)P(=O)(O)O [(R)‐36] | < 10 | > 200 | < 5.8
CC(=O)c1ccc(NC(=O)[C@@H](NC(=O)C(CC(C)C)P(=O)(O)O)C(C)C)cc1 (stereo partly drawn) [compound 30] | < 10 | > 200 | < 5.8
CC(C)CC(C(=O)N[C@H](C(=O)Nc1ccc(Cl)c(Cl)c1)C1CCC1)P(=O)(O)O (stereo partly drawn) [compound 13] | < 10 | > 200 | < 5.8
